Measurements from US20100119997A1, “METHOD FOR PRODUCTION OF MESENCHYMAL CELL, METHOD FOR PRODUCTION OF TOOTH, AND MESENCHYMAL CELL FOR FORMATION OF TOOTH” (ORGAN TECHNOLOGIES INC., priority 2007, published 2010).

Tests used:
[1] = test system: AT805 cells (EC cells); experiment: Differentiation induction of EC cells by DMSO, CD44/CD29 double staining and cell sorter; type: cell-based, mouse; settings: for CD44-positive and CD29-positive cells / Cell number: 14 h treatment
Experimental: As the EC cells, AT805 cells (a clone derived from OTT6050, EC cells of the strain129; obtained from the Cell Bank, RIKEN Bioresource Center) were used. Culturing of AT805 cells was performed using Dulbecco's modified Eagle's medium (DMEM; manufactured by SIGMA or Kohjin Bio Co. Ltd.) supplemented with 10% by volume fetal calf serum (FCS: manufactured by JRH, JBS or Hyclone) and 55 μM 2-mercaptoethanol (manufactured by GIBCO). EC cells were usually plated at a concentration of 5 to 8×10^5 cells per 100 mm dish, and complete replacement of the medium and passage culture were repeated every other day. In passage culture, the cells were washed once with HCMF buffer (pH7.4; 10 mM Hepes, 136.9 mM NaCl, 0.34 mM […], 13.9 mM glucose, 5.37 mM KCl), and 5 ml of an enzyme solution wherein trypsin-EDTA.2Na (manufactured by GIBCO) was dissolved at the final concentration of 0.025% was then added thereto, followed by an enzyme treatment at 37° C. for 1 minute. Subsequently, an equal amount of DMEM supplemented with 10% FCS was added to disperse the cells, and the cells were then precipitated and collected by centrifugation. The collected cells were resuspended and plated on a new culture dish to carry out passage culture.
EC cells collected by trypsin treatment were suspended in DMEM supplemented with 10% by volume FCS and dimethylsulfoxide (DMSO: manufactured by SIGMA) at the final concentration of 0.5 to 5% by volume, and plated at the concentration of 1.0×10^6 cells per 100 mm dish. Culture was carried out under 5% CO2 at 37° C., and after 14 hours, the cells were washed once with HCMF buffer, followed by replacement of the medium with DMEM supplemented with 10% by volume FCS.
EC cells treated with DMSO was continuously cultured for 6 days (19 days only in the case of 5% by volume DMSO) with replacement of a half amount of the medium every 3 days with DMEM supplemented with 10% by volume FCS, and observation was carried out as appropriate. When a cell population containing undifferentiated cells was grown, it washed once with HCMF buffer and then suspended by addition of Ca^2+/Mg^2+-free PBS(−)(EDTA/BSA-PBS) supplemented with 3 mM EDTA and 0.5% BSA, followed by centrifugation to collect cells as precipitates. The cells were resuspended in EDTA/BSA-PBS and then subjected to double staining with an FITC-labeled anti-CD44 antibody (CD44-FITC: manufactured by BD Pharmingen) and a PE-labeled anti-CD29 antibody (CD29-PE: manufactured by BD Pharmingen). A CD44-positive and CD29-positive cell fraction was isolated using a cell sorter, Epics ALTRA (manufactured by Beckman Coulter), to obtain an EC cell fraction wherein differentiation was induced by a DMSO treatment and undifferentiated EC cell were excluded (see FIG. 2). These cells were designated DMSO-EC cells.

[2] = test system: AT805 cells (EC cells); experiment: Differentiation induction of EC cells by retinoic acid, CD44/CD29 double staining and cell sorter; type: cell-based, mouse; settings: 72 h treatment, 7 culture days
Experimental: AT805 cells collected by a trypsin treatment in the same manner as in Example 1 were plated at a concentration of 1.0×10^6 cells per 100 mm dish, and, on the next day, the medium was replaced with DMEM supplemented with 10% by volume FCS, which was also added with retinoic acid (manufactured by SIGMA) at a final concentration of 0 to 10.0 μM, to stimulate the cells. After 72 hours of culture, the cells were washed twice with HCMF buffer, and the whole medium was replaced with DMEM supplemented with 10% by volume FCS only.
Culturing was continued for 7 days with replacement of a half amount of the medium every 3 days with DMEM supplemented with 10% by volume FCS, and observation was carried out as appropriate. A cell population grown after the RA treatment, which contains undifferentiated cells, was washed once with HCMF, and 3 mM EDTA-0.5% BSA-PBS(−) was added thereto, followed by incubation thereof at 37° C. After collecting cells, the cells were subjected to double staining with CD44 FITC (BD Pharmingen) and CD29 (BD Pharmingen) PE to separate and obtain CD44-positive and CD29-positive cells using Epics ALTRA (Beckman Coulter), and thus a cell population after exclusion of undifferentiated cells, which cell population is composed of only differentiated cells, was obtained. These cells were designated RA-EC cells.

[3] = DMSO 5.0 v/v %, 19 culture days

Structure (SMILES) | Survival of EC cells immediately after treatment ([1]; 5% by volume DMSO) | CD44-positive and CD29-positive cells ([1]; DMSO 0.5 v/v %, 6 culture days) | Cell number ([1]; DMSO 0.5 v/v %, 6 culture days) | CD44-positive and CD29-positive cells ([1]; DMSO 1.0 v/v %, 6 culture days) | Cell number ([1]; DMSO 1.0 v/v %, 6 culture days) | CD44-positive and CD29-positive cells ([1]; DMSO 2.5 v/v %, 6 culture days) | Cell number ([1]; DMSO 2.5 v/v %, 6 culture days) | CD44-positive and CD29-positive cells [1, 3] | Cell number [1, 3] | CD44-positive and CD29-positive cells ([2]; RA 0.5 μM) | Cell number ([2]; RA 0.5 μM) | CD44-positive and CD29-positive cells ([2]; RA 1.0 μM) | Cell number ([2]; RA 1.0 μM) | CD44-positive and CD29-positive cells ([2]; RA 2.0 μM) | Cell number ([2]; RA 2.0 μM) | CD44-positive and CD29-positive cells ([2]; RA 5.0 μM) | Cell number ([2]; RA 5.0 μM) | CD44-positive and CD29-positive cells ([2]; RA 10.0 μM) | Cell number ([2]; RA 10.0 μM)
C[S+](C)[O-] [DMSO, dimethyl sulfoxide] | most cells died immediately after the treatment | 0.3% | 1.15 ×10^7 cells | 0.5% | 1.19 ×10^7 cells | 13.7% | 1.64 ×10^7 cells | 93.0% | 2.83 ×10^7 cells |  |  |  |  |  |  |  |  |  | 
CC1=C(/C=C/C(C)=C/C=C/C(C)=C/C(=O)O)C(C)(C)CCC1 [RA, retinoic acid] |  |  |  |  |  |  |  |  |  | 10.8% | 1.5 ×10^6 cells | 10.0% | 1.1 ×10^6 cells | 11.3% | 1.3 ×10^6 cells | 11.5% | 0.5 ×10^6 cells | 10.4% | 0.7 ×10^6 cells
